Measured values published in the NIST ThermoML archive (doi:10.1021/je0501890).
Numbers after ± are expanded uncertainties.

Conditions: 298.15 K; 101.33 kPa; Liquid

**Q.** With `ClC(Cl)=C(Cl)Cl` [tetrachloroethene] as the compound, how does the mass density read?
**A.** 1613.2 ± 1.6 kg/m3

**Q.** And the viscosity?
**A.** 0.839 ± 0.012 mPa·s

**Q.** What does the source list for `CCCCCCCO` [heptan-1-ol]?
**A.** mass density: 818.48 ± 0.68 kg/m3; viscosity: 5.818 ± 0.079 mPa·s

**Q.** For `ClCCCl` [1,2-dichloroethane], which mass density is on record?
**A.** 1245.64 ± 0.92 kg/m3

**Q.** And the viscosity?
**A.** 0.776 ± 0.011 mPa·s

**Q.** With `ClC(Cl)C(Cl)Cl` [1,1,2,2-tetrachloroethane] as the compound, how does the mass density read?
**A.** 1586.65 ± 1.6 kg/m3

**Q.** And the viscosity?
**A.** 1.431 ± 0.019 mPa·s

**Q.** Which results are given for `CC(Cl)(Cl)Cl` [1,1,1-trichloroethane]?
**A.** mass density: 1329.55 ± 1.1 kg/m3; viscosity: 0.789 ± 0.011 mPa·s

**Q.** With `ClC=C(Cl)Cl` [trichloroethene] as the compound, how does the mass density read?
**A.** 1455.65 ± 1.3 kg/m3

**Q.** What about the viscosity of the same compound?
**A.** 0.536 ± 0.008 mPa·s
